The target of series [1] is T1, influenza A virus (IAV) PA-Nter fragment (amino acids 1-209) (Influenza A virus, UniProt P31343).
T1 construct: PA-Nter fragment (amino acids 1-209); made in house
The series can be described thus: FRET endonuclease activity assay. In kind it is biochemical. The following applies: for inhibition at 50 µM / inhibition at 1 µM / inhibition at 25 µM / inhibition at 10 µM / inhibition at 5 µM: read-out: FRET % reduction of v0; for IC50: from initial reaction velocities (v0) of RNA substrate cleavage.

By melting point is commonly meant the temperature, or range, at which the solid turns liquid. A word on the IC50: it is the midpoint of a concentration-inhibition curve.

The structures appear in SMILES notation.

In turn, `O=C(O)c1cn(CCc2cccc(Cl)c2)c2cc(C3CC3)nn2c1=O` yielded a melting point of 230 to 235 °C. Compound `O=C(O)c1cn(CCc2ccccc2)c2cc(C3CC3)nn2c1=O` showed a melting point of 185 to 190 °C. As to `O=C(O)c1cn(Cc2ccccc2-c2ccccc2)c2ccnn2c1=O`, the inhibition at 50 µM in series [1] is 29%. For `CCOC(=O)c1cn(Cc2ccccc2-c2ccccc2)c2sc(NCc3c(Cl)cccc3Cl)nc2c1=O`, in series [1], the IC50 is 6.3 µM. `CCOC(=O)c1cn(Cc2ccccc2-c2ccccc2)c2sc(NS(=O)(=O)c3ccc(Cl)cc3)nc2c1=O`: in series [1], the inhibition at 1 µM came to 6.2%. In series [1], `O=C(O)c1cn(Cc2ccccc2-c2ccccc2)c2sc(NCc3cccc(Cl)c3)nc2c1=O` showed an IC50 of 5.2 µM.

Regarding `O=C(O)c1cn(CCc2ccccc2)c2cc(C3CCCC3)nn2c1=O` [drawing 219], the inhibition at 25 µM in series [1] was determined as 42%. In series [1], `O=C(O)c1cn(Cc2ccccc2-c2ccccc2)c2sc(NCc3ccc(Cl)cc3)nc2c1=O` yielded an IC50 of 2.3 µM. This counts as single-digit micromolar. Turning to `CCOC(=O)c1ccc(S(=O)(=O)Nc2nc3c(=O)c(C(=O)OCC)cn(Cc4ccccc4-c4ccccc4)c3s2)cc1`, in series [1], the inhibition at 1 µM stood at 8.1%. Consider `O=C(O)c1cn(Cc2ccccc2-c2ccccc2)c2sc(NS(=O)(=O)Cc3ccc(Cl)cc3Cl)nc2c1=O`, for which the IC50 in series [1] was found to be 7 µM. Same read-out and setting: as for `COc1ccc(CNc2nc3c(=O)c(C(=O)O)cn(Cc4ccccc4-c4ccccc4)c3s2)cc1`, the figure is 2.9 µM. On the same count and under the same terms, as for `O=C(O)c1c[nH]c2nc(NCc3ccccc3)nn2c1=O` [drawing 216], the figure is 50 µM; as for `O=C(O)c1cn(Cc2ccccc2-c2ccccc2)c2sc(NS(=O)(=O)Cc3ccccc3)nc2c1=O`, 7.3 µM. The same measure, in the same setting: the result for `O=C(O)c1cn(CCc2cccc(F)c2)c2cc(C3CC3)nn2c1=O` [drawing 226] reads 62 µM; that for `Cc1ccc(C)c(-c2ccccc2Cn2cc(C(=O)O)c(=O)c3nc(O)sc32)c1`, 0.25 µM. Turning to `Nc1cc2n(Cc3ccccc3-c3ccccc3)cc(C(=O)O)c(=O)n2n1`, in series [1], the inhibition at 10 µM was 38%. For the compound `Nc1cc2n(Cc3ccccc3)cc(C(=O)O)c(=O)n2n1`, the inhibition at 50 µM in series [1] was found to be 35%.

With `CCOC(=O)c1cn(CCc2ccc(O)cc2)c2cc(C3CC3)nn2c1=O` [drawing 223], the inhibition at 25 µM in series [1] was 22%. In the case of `CCOC(=O)c1cn(C(c2ccccc2)c2ccccc2)c2sc(NS(=O)(=O)c3ccc(Cl)cc3F)nc2c1=O`, the inhibition at 1 µM in series [1] was determined as 5.6%.

Turning to `O=C(O)c1c[nH]c2cc(C3CCCC3)nn2c1=O`, the inhibition at 25 µM in series [1] was 41%. `Nc1nc2c(=O)c(C(=O)O)cn(Cc3ccccc3-c3ccccc3)c2s1` displayed an IC50 in series [1] of 0.94 µM.

As for `O=C(O)c1cn(Cc2ccccc2-c2ccccc2)c2sc(NS(=O)(=O)c3ccc(Cl)cc3F)nc2c1=O`, the IC50 in series [1] was 5.7 µM.

In turn, `CS(=O)(=O)Nc1nc2c(=O)c(C(=O)O)cn(Cc3ccccc3-c3ccccc3)c2s1` displayed an IC50 in series [1] of 8.1 µM. For the compound `CC(C)c1cc2n(CCCc3ccccc3)cc(C(=O)O)c(=O)n2n1` [drawing 215], the inhibition at 5 µM in series [1] is 23%. As to `CNc1nc2c(=O)c(C(=O)O)cn(Cc3ccccc3-c3ccccc3)c2s1`, the IC50 in series [1] came to 2.8 µM. In turn, `O=C(O)c1cn(Cc2ccccc2-c2ccccc2)c2sc(NC3CC3)nc2c1=O` returned an IC50 in series [1] of 2.5 µM.

As to `COc1ccc(S(=O)(=O)Nc2nc3c(=O)c(C(=O)O)cn(Cc4ccccc4-c4ccccc4)c3s2)cc1`, the IC50 in series [1] came to 2.7 µM. The IC50 values of the last two compounds are within 1.5-fold of each other. For the compound `CCOC(=O)c1cn(C(c2ccccc2)c2ccccc2)c2sc(NS(=O)(=O)c3ccc(OC)cc3)nc2c1=O`, the inhibition at 1 µM in series [1] worked out at 25%. In the case of `O=C(O)c1cn(CCc2cccc(C(F)(F)F)c2)c2cc(C3CC3)nn2c1=O` [drawing 225], the inhibition at 25 µM in series [1] was 32%. As for `O=C(O)c1cn(C(c2ccccc2)c2ccccc2)c2sc(O)nc2c1=O`, the IC50 in series [1] came out at 0.78 µM.

With `O=C(O)c1cn(C(c2ccccc2)c2ccccc2)c2sc(NS(=O)(=O)c3ccc(Cl)cc3F)nc2c1=O`, the inhibition at 1 µM in series [1] worked out at 2%.

Take `O=C(O)c1cn(Cc2ccccc2-c2ccccc2)c2scnc2c1=O`: the inhibition at 10 µM in series [1] worked out at 64%. `O=c1cc[nH]c2nc(NS(=O)(=O)Cc3ccccc3)nn12` came in with a half-inhibitory concentration (IC50) in series [1] of 34 µM. In the case of `COc1ccc(CNc2nc3c(=O)c(C(=O)O)cn(C(c4ccccc4)c4ccccc4)c3s2)cc1`, the inhibition at 10 µM in series [1] was 21.5%. `CC(Nc1nc2c(=O)c(C(=O)O)cn(Cc3ccccc3-c3ccccc3)c2s1)c1ccccc1` (stereo not shown) yielded an IC50 in series [1] of 5.8 µM. The same measure, in the same setting: the result for `O=C(O)c1cn(Cc2ccccc2-c2ccccc2)c2sc(NS(=O)(=O)c3cccc(F)c3)nc2c1=O` reads 6.7 µM.

For the compound `O=C(O)c1cn(CCc2ccc(O)cc2)c2cc(C3CC3)nn2c1=O` [drawing 227], in series [1], the inhibition at 25 µM turned out to be 27%. As to `O=C(O)c1cn(Cc2ccccc2-c2ccccc2)c2sc(N3CCOCC3)nc2c1=O`, inhibition in series [1] was half-maximal at 0.78 µM (IC50). Same read-out and setting: the result for `Nc1cc2n(S(=O)(=O)c3ccccc3)cc(C(=O)O)c(=O)n2n1` reads 71 µM.

In the case of `O=C(O)c1cn(Cc2ccc(Cl)cc2-c2ccccc2)c2sc(O)nc2c1=O`, in series [1], the midpoint of inhibition, the IC50, lay at 0.87 µM. The same measure, in the same setting: as for `COc1ccc(S(=O)(=O)Nc2nc3c(=O)c(C(=O)O)cn(Cc4ccccc4-c4ccc(Cl)cc4)c3s2)cc1`, the figure is 7.2 µM; as for `COCCNc1nc2c(=O)c(C(=O)O)cn(Cc3ccccc3-c3ccccc3)c2s1`, 9 µM.

Take `O=C(O)c1cn(CCc2cccc(Cl)c2)c2cc(C3CC3)nn2c1=O` [drawing 224]: the inhibition at 25 µM in series [1] stood at 30%. `CC(C)Nc1nc2c(=O)c(C(=O)O)cn(Cc3ccccc3-c3ccccc3)c2s1` yielded an IC50 in series [1] of 14 µM. In series [1], `COc1ccc(CCn2cc(C(=O)O)c(=O)n3nc(C4CC4)cc23)cc1` [drawing 228] had an IC50 of 69 µM. Same read-out and setting: as for `COc1ccc(CNc2nc3c(=O)c(C(=O)O)cn(Cc4ccccc4-c4cc(C)ccc4C)c3s2)cc1`, the figure is 2.1 µM. Still for that read-out and setting: the result for `CC(C)c1cc2[nH]cc(C(=O)O)c(=O)n2n1` reads 35 µM.

Take `CC(C)c1cc2n(CCCc3ccccc3)cc(C(=O)O)c(=O)n2n1` [drawing 222]: the inhibition at 25 µM in series [1] stood at 22%. With `N#Cc1ccc(S(=O)(=O)Nc2nc3c(=O)c(C(=O)O)cn(Cc4ccccc4-c4ccc(Cl)cc4)c3s2)cc1`, the IC50 in series [1] turned out to be 2.5 µM. As for `Nc1cc2n(C(=O)C3(c4ccccc4)CCCC3)cc(C(=O)O)c(=O)n2n1` [drawing 220], the inhibition at 25 µM in series [1] came to 20%. The same measure, in the same setting: the result for `CS(=O)(=O)n1cc(C(=O)O)c(=O)n2nc(N)cc12` reads 31%. In series [1], `O=C(O)c1cn(Cc2ccccc2-c2ccccc2)c2sc(NS(=O)(=O)c3ccccc3)nc2c1=O` had an IC50 of 6.5 µM. Compound `O=CNc1nc2c(=O)c(C(=O)O)cn(Cc3ccccc3-c3ccccc3)c2s1` registered an IC50 in series [1] of 4.7 µM. For `O=C(O)c1c[nH]c2ncnn2c1=O`, the inhibition at 5 µM in series [1] was found to be 26%. With `COc1ccc(CNc2nc3c(=O)c(C(=O)O)cn(Cc4ccc(Cl)cc4-c4ccccc4)c3s2)cc1`, the IC50 in series [1] was found to be 3.8 µM. In the case of `Nc1cc2n(S(=O)(=O)Cc3ccccc3)cc(C(=O)O)c(=O)n2n1`, the inhibition at 25 µM in series [1] came out at 50%. On to `O=C(O)c1cn(Cc2ccccc2-c2ccccc2)c2sc(NCc3ccccc3)nc2c1=O`, for which the IC50 in series [1] stood at 3.2 µM. As to `O=C(O)c1c[nH]c2ccnn2c1=O`, in series [1], the IC50 amounted to 58 µM. On the same count and under the same terms, the result for `Nc1cc2[nH]cc(C(=O)O)c(=O)n2n1` reads 10 µM; that for `O=C(O)c1cn(Cc2ccccc2-c2ccccc2)c2sc(O)nc2c1=O`, 0.16 µM. As for `COc1ccc(S(=O)(=O)Nc2nc3c(=O)c(C(=O)O)cn(C(c4ccccc4)c4ccccc4)c3s2)cc1`, in series [1], the inhibition at 1 µM was determined as 7.8%.

The values above are taken from patent US9434745B2, “7-oxo-thiazolopyridine carbonic acid derivatives and their use in the treatment, amelioration or prevention of a viral disease” (Savira Pharmaceuticals GmbH, priority 2012, dated 2016).
